Data taken from ChEMBL document CHEMBL4304832, “Novel Pyrazole-Containing Compounds Active against Mycobacterium tuberculosis” (ACS Med Chem Lett, 2019).
Active and inactive are the calls of the source. No cut-off for these calls is given here.

Tests used:
Format in all cases: functional, organism-based
[1] = tested on: Mycobacterium tuberculosis; test: Antitubercular activity against Mycobacterium tuberculosis H37Rv harboring mmpL3 P239H mutant at 20 uM incubated for 4 weeks by resazurin dye based fluorescence assay
[2] = tested on: Mycobacterium tuberculosis; test: Antitubercular activity against Mycobacterium tuberculosis H37Rv harboring lprM V86V mutant at 25 uM incubated for 4 weeks by resazurin dye based fluorescence assay
[3] = tested on: Mycobacterium tuberculosis; test: Antitubercular activity against Mycobacterium tuberculosis H37Rv harboring fadD26 (336 amino acids) insertion mutant at 20 uM incubated for 4 weeks by resazurin dye based fluorescence assay
[4] = tested on: Mycobacterium tuberculosis; test: Antitubercular activity against Mycobacterium tuberculosis H37Rv harboring mmpL3 V240A mutant at 12.5 uM incubated for 4 weeks by resazurin dye based fluorescence assay
[5] = tested on: Mycobacterium tuberculosis; test: Antitubercular activity against Mycobacterium tuberculosis H37Rv harboring ppsB L1476S mutant at 12.5 uM incubated for 4 weeks by resazurin dye based fluorescence assay

Row | SMILES | Activity [1] | Activity [2] | Activity [3] | Activity [4] | Activity [5]
1 | CC(C)c1ccc(-c2cc(CN3CCN(c4ccccn4)CC3)nn2C2CCCCC2)cc1 | Active | Active | Active |  | 
2 | COC1CCN(Cc2cc(-c3ccc(C(C)C)cc3)n(-c3ccc(F)cc3)n2)CC1 |  |  |  | Active | Active
